Legend:
Boophilus microplus = Boophilus microplus - injection test; type: in vivo; conditions: 20 μg/animal, injected into engorged adult female cattle ticks, after 7 days
Protocol: (§1) Solvent: dimethyl sulphoxide
To produce an appropriate active ingredient formulation, 10 mg of active ingredient are mixed with 0.5 ml of solvent and the concentrate is diluted with solvent to the desired concentration.
1 μl of the active ingredient solution is injected into the abdomen of 5 engorged adult female cattle ticks (Boophilus microplus). The animals are transferred into dishes and kept in a climate-controlled room.
(§2) Efficacy is assessed after 7 days by laying of fertile eggs. Eggs which are not visibly fertile are stored in a climate-controlled cabinet until the larvae hatch after about 42 days. An efficacy of 100% means that none of the ticks has laid any fertile eggs; 0% means that all the eggs are fertile.

[1] = test system: Boophilus microplus Parkhurst strain, SP-resistant; assay: Boophilus microplus - dip test; type: in vivo; conditions: 100 ppm, adult engorged female cattle ticks, after 7 days
Protocol: Test animals: cattle ticks (Boophilus microplus) Parkhurst strain, SP-resistant
as §1
10 mg of active ingredient are dissolved in 0.5 ml of dimethyl sulphoxide. For the purpose of producing a suitable formulation, the active ingredient solution is diluted with water to the concentration desired in each case.
This active ingredient formulation is pipetted into tubes. 8-10 adult engorged female cattle ticks (Boophilus microplus) are transferred into a further tube with holes. The tube is immersed into the active ingredient formulation, and all the ticks are completely wetted. After the liquid has run out, the ticks are transferred on filter discs into plastic dishes and stored in a climate-controlled room.
as §2

Myzus persicae = Myzus persicae - spray test; type: in vivo; conditions: 500 g/ha, Chinese cabbage leaf discs, after 6 days
Protocol: Solvent: 78 parts by weight of acetone
(§3) • 1.5 parts by weight of dimethylformamide Emulsifier: alkylaryl polyglycol ether
(§4) To produce an appropriate active ingredient formulation, 1 part by weight of active ingredient is dissolved using the specified parts by weight of solvent and made up with water containing an emulsifier concentration of 1000 ppm until the desired concentration is attained. To produce further test concentrations, the preparation is diluted with emulsifier-containing water.
Discs of Chinese cabbage leaves (Brassica pekinensis) infested by all stages of the green peach aphid (Myzus persicae) are sprayed with an active ingredient formulation of the desired concentration.
After 6 days, efficacy in % is determined. 100% means that all the aphids have been killed; 0% means that none of the aphids have been killed.

Tetranychus urticae = Tetranychus urticae - spray test, OP-resistant; type: in vivo; conditions: bean leaf discs, after 6 days
Protocol: (§5) Solvent: 78.0 parts by weight of acetone
as §3, §4
Discs of bean leaves (Phaseolus vulgaris) infested by all stages of the greenhouse red spider mite (Tetranychus urticae) are sprayed with an active ingredient formulation of the desired concentration.
After 6 days, efficacy in % is determined 100% means that all the spider mites have been killed; 0% means that none of the spider mites have been killed.

Lucilia cuprina = Lucilia cuprina - test; type: in vivo; conditions: 100 ppm, L1 larvae, after 2 days
Protocol: as §1
(§6) To produce an appropriate active ingredient formulation, 10 mg of active ingredient are mixed with 0.5 ml of dimethyl sulphoxide, and the concentrate is diluted with water to the desired concentration.
About 20 L1 larvae of the Australian sheep blowfly (Lucilia cuprina) are transferred into a test vessel containing minced horsemeat and the active ingredient preparation of the desired concentration.
After 2 days, the kill in % is determined 100% means that all the larvae have been killed; 0% means that none of the larvae have been killed.

Ctenocephalides felis [2] = assay: Ctenocephalides felis - oral test; type: in vivo; conditions: 100 ppm in citrated cattle blood, adult cat fleas, after 2 days
Protocol: as §1
For the purpose of producing an appropriate active ingredient formulation, 10 mg of active ingredient are mixed with 0.5 ml of dimethyl sulphoxide. Dilution with citrated cattle blood gives the desired concentration.
About 20 unfed adult cat fleas (Ctenocephalides felis) are placed into a chamber which is closed at the top and bottom with gauze. A metal cylinder whose bottom end is closed with parafilm is placed onto the chamber. The cylinder contains the blood/active ingredient preparation, which can be imbibed by the fleas through the parafilm membrane.
After 2 days, the kill in % is determined 100% means that all of the fleas have been killed; 0% means that none of the fleas have been killed.

Spodoptera frugiperda = Spodoptera frugiperda - spray test; type: in vivo; conditions: maize leaf discs, after 7 days
Protocol: as §5, §3, §4
Leaf discs of maize (Zea mays) are sprayed with an active ingredient formulation of the desired concentration and, after drying, populated with caterpillars of the armyworm (Spodoptera frugiperda).
After 7 days, efficacy in % is determined. 100% means that all the caterpillars have been killed; 0% means that no caterpillars have been killed.

Amblyomma hebraeum = assay: Amblyomma hebaraeum - test (tick nymphs, immersion); type: in vivo; conditions: 100 ppm, tick nymphs immersed one minute, after 42 days
Protocol: as §1, §6
Tick nymphs (Amblyomma hebraeum) are placed into perforated plastic beakers and immersed in the desired concentration for one minute. The ticks are transferred on filter paper into a Petri dish and stored in a climate-controlled cabinet.
After 42 days, the kill in % is determined 100% means that all of the ticks have been killed; 0% means that none of the ticks have been killed.

Musca domestica = Musca domestica - test; type: in vivo; conditions: 100 ppm, adult houseflies, after 2 days
Protocol: as §1, §6
Vessels containing a sponge treated with sugar solution and the active ingredient formulation of the desired concentration are populated with 10 adult houseflies (Musca domestica).
After 2 days, the kill in % is determined 100% means that all of the flies have been killed; 0% means that none of the flies have been killed.

Phaedon cochleariae = Phaedon cochleariae - spray test; type: in vivo; conditions: Chinese cabbage leaf discs, after 7 days
Protocol: as §5, §3, §4
Discs of Chinese cabbage leaves (Brassica pekinensis) are sprayed with an active ingredient formulation of the desired concentration and, after drying, populated with larvae of the mustard beetle (Phaedon cochleariae).
After 7 days, efficacy in % is determined 100% means that all the beetle larvae have been killed; 0% means that no beetle larvae have been killed.

Rhipicephalus sanguineus = Rhipicephalus sanguineus - in vitro contact tests with adult brown dog ticks; type: in vivo; conditions: 5 μg/cm^2, adult dog ticks, after 48 h
Protocol: (§7) For the coating of the test tubes, 9 mg of active ingredient are first dissolved in 1 ml of acetone p.a. and then diluted to the desired concentration with acetone p.a. 250 μl of the solution are distributed homogeneously on the inner walls and base of a 25 ml test tube by turning and rocking on an orbital shaker (rocking rotation at 30 rpm for 2 h). With 900 ppm active ingredient solution and internal surface 44.7 cm^2, given homogeneous distribution, an area-based dose of 5 μg/cm^2 is achieved.
After the solvent has evaporated off, the tubes are populated with 5-10 adult dog ticks (Rhipicephalus sanguineus), sealed with a perforated plastic lid and incubated in a horizontal position in the dark at room temperature and ambient humidity. After 48 h, efficacy is determined To this end, the ticks are knocked to the floor of the tube and incubated on a hotplate at 45-50° C. for not more than 5 min Ticks which remain motionless on the floor or move in such an uncoordinated manner that they are unable to deliberately avoid the heat by climbing upwards are considered to be dead or moribund.
An efficacy of 100% means that all the ticks were dead or moribund. 0% efficacy means that none of the ticks had been harmed.

[3] = test system: Anopheles funestus strain FUMOZ-R; assay: Anopheles test (ANPHFU surface treatment); type: in vivo; conditions: 20 mg/m^2, glazed tile, exposure 30 minutes, 24 hours after contact
Protocol: Solvent: acetone+2000 ppm rapeseed oil methyl ester (RME)
To produce an appropriate active ingredient formulation, the active ingredient is dissolved in the solvent (2 mg/ml). The active ingredient formulation is pipetted onto a glazed tile and, after it has dried off, adult mosquitoes of the species Anopheles funestus strain FUMOZ-R (Hunt et al., Med Vet Entomol. 2005 September; 19(3):271-5) are placed onto the treated tile. The exposure time is 30 minutes.
24 hours after contact with the treated surface, mortality in % is determined 100% means that all mosquitoes have been killed; 0% means that none of the mosquitoes have been killed.

[4] = logP by HPLC on reversed-phase column (C18), EEC Directive 79/831 Annex V.A8; type: physicochemical
Ctenocephalides felis [5] = assay: Ctenocephalides felis - in vitro contact tests with adult cat fleas; type: in vivo; conditions: 5 μg/cm^2, adult cat fleas, after 48 h
Protocol: as §7, with “surface area” for “surface”
After the solvent has evaporated off, the tubes are populated with 5-10 adult cat fleas (Ctenocephalides felis), sealed with a perforated plastic lid and incubated in a horizontal position at room temperature and ambient humidity. After 48 h, efficacy is determined. To this end, the test tubes are stood upright and the fleas are knocked to the base of the tube. Fleas which remain motionless at the base or move in an uncoordinated manner are considered to be dead or moribund.
100% efficacy means that all the fleas were dead or moribund. 0% efficacy means that no fleas were harmed.

Structure (SMILES) | efficacy (no fertile eggs laid) (Boophilus microplus) [%] | efficacy (no fertile eggs laid) [1] [%] | efficacy (aphids killed) (Myzus persicae) [%] | efficacy (spider mites killed) (Tetranychus urticae; 500 g/ha) [%] | efficacy (kill in %) (Lucilia cuprina) [%] | efficacy (kill in %) (Ctenocephalides felis [2]) [%] | efficacy (caterpillars killed) (Spodoptera frugiperda; 500 g/ha) [%] | efficacy (kill in %) (Amblyomma hebraeum) [%] | efficacy (kill in %) (Musca domestica) [%] | efficacy (beetle larvae killed) (Phaedon cochleariae; 500 g/ha) [%] | efficacy (dead or moribund) (Rhipicephalus sanguineus) [%] | efficacy (mortality in %) [3] | efficacy (spider mites killed) (Tetranychus urticae; 100 g/ha) [%] | efficacy (caterpillars killed) (Spodoptera frugiperda; 100 g/ha) [%] | logP [4] | efficacy (dead or moribund) (Ctenocephalides felis [5]) [%] | efficacy (beetle larvae killed) (Phaedon cochleariae; 100 g/ha) [%]
Cc1cc(C(F)(C(F)(F)F)C(F)(F)F)cc(C)c1-c1cn(-c2cnc(Cl)c(C(=O)NC3CC3)c2)nn1 [I-T48-7] | 100 | 100 | 100 | 100 | 100 | 100 | 100 | 100 | 100 | 100 | 100 | – | – | – | – | – | –
Cc1cc(C(F)(C(F)(F)F)C(F)(F)F)cc(C)c1-c1cn(-c2cnc(Cl)c(C(=O)NC3(C#N)CC3)c2)nn1 [I-T48-8] | 100 | 100 | 100 | 100 | – | 100 | 100 | 100 | – | 100 | – | – | – | – | – | – | –
N#CC1(NC(=O)c2cc(-n3cc(-c4c(Cl)cc(C(F)(C(F)(F)F)C(F)(F)F)cc4Cl)nn3)ccc2Cl)CC1 [I-T48-4] | 100 | – | – | – | 100 | 100 | – | – | 100 | – | 100 | 90-100% | 100 | 100 | 4.2 | 100 | 100
O=C(NC1CC1)c1cc(-n2cc(-c3c(Cl)cc(C(F)(C(F)(F)F)C(F)(F)F)cc3Cl)nn2)ccc1Cl [I-T48-3] | 100 | 90 | – | – | 100 | 100 | – | 90 | 100 | – | 100 | – | 100 | 100 | 4.3 | 100 | 100
Cc1cc(C(F)(C(F)(F)F)C(F)(F)F)cc(C)c1-c1cn(-c2ccc(Cl)c(C(=O)NC3CSC3)c2)nn1 [I-T48-6] | 100 | – | – | – | 100 | 100 | – | – | 100 | – | – | – | 100 | 100 | 4.5 | – | 100
Cc1cc(C(F)(C(F)(F)F)C(F)(F)F)cc(C)c1-c1cn(-c2ccc(Cl)c(C(=O)NCC(F)(F)F)c2)nn1 [I-T48-5] | 100 | – | – | – | 100 | 100 | – | – | 100 | – | – | – | – | 100 | 4.5 | – | 100

Source: patent publication US10836732B2, “Compounds for combating arthropods” (priority 2013, dated 2020)
